# Experimental data taken from patent US8399005B2, “Use of nitric oxide to enhance the efficacy of silver and other topical wound care agents” (University of North Carolina at Chapel Hill, priority 2007, dated 2013).
# Assays:
# [1] = system: P. aeruginosa; assay: Bactericidal assays under static conditions (PBS); type: cell-based
# Method: Bactericidal assays under static conditions. […] Silica nanoparticles (NO-releasing and control), PROLI/NO, and proline were added to separate aliquots of the bacterial suspension over a concentration range optimized for each system. After 1 h incubation at 37° C. with gentle agitation, 100-μL aliquots from each suspension were plated on tryptic soy agar. After overnight incubation at 37° C., the colonies on each plate were counted, allowing for calculation of the number of viable P. aeruginosa cells in each vial at the time of plating.
# [2] = system: P. aeruginosa; assay: Time-based bactericidal assays under nutrient growth conditions (TSB); type: cell-based; parameters: amount of NO per mL required for complete bacterial killing: unit not given here
# Method: Time-based bactericidal assays under nutrient growth conditions. To test the temporal efficacy of the NO-releasing silica nanoparticles, time-based antibacterial assays were conducted in TSB nutrient media. P. aeruginosa was cultured in TSB to a concentration of 10^8 CFU·mL^−/1 and diluted to 10^4 CFU·mL^−1 in additional TSB. […] Bacterial viability was determined as described above after incubating the plates overnight at 37° C.
# [3] = system: mammalian cells; conditions: 200 ppm for 4 hours; cited from earlier work
# [4] = system: L929 cells; assay: L929 propidium iodide (PI) viability assay (Example 1); type: cell-based, mouse; conditions: 2 mg/mL, L929, KRH buffer
# Method: [formula] L929 propidium iodide (PI) viability assay. L929 cells were plated on 24-well tissue culture treated dishes (BD Bioscience #353047) at a density of 3.0×10^5 cells/ml (150×10^3 cells/well) and incubated overnight at 37° C., in 5% CO2/95% air for 18-20 h. For the PI assay, the incubation buffer was aspirated from each of the wells and replaced with 500 μL of Krebs-Ringer-HEPES (KRH) buffer containing (mM): 115 NaCl, 5 KCl, 1 CaCl2, 1 KH2PO4, 1.2 MgSO4, 25 HEPES, pH 7.4, supplemented with 30 μM of PI. The fluorescence of the cells was determined in a concentration-dependent manner against both proli/NO and proline, as monitored using a FluoStar Galaxy plate reader (BMG Labtech, Durham, N.C.) with excitation and emission filters set at 544 and 640 nm, respectively. Fluorescence was acquired at 0 and 60 min. An additional 20 min incubation of cells with 40 μM digitonin was required to completely permeabilize plasma membranes and achieve maximum PI fluorescence. Cell viability was represented as an increase in PI fluorescence from each well expressed as percentage of the maximum fluorescence obtained in cells treated with digitonin (100% cell death). S. aureus cytotoxicity assay in PBS. […] Toxicity was measured by aliquoting this bacterial solution into eppendorf tubes containing proli/NO, incubating these solutions for one hour at 37° C., and then plating them on TSA plates. […]
# [5] = system: S. aureus; assay: Fractional bactericidal concentration (FBC120) time-based synergistic killing assay in TSB; type: cell-based
# Method: (§1) Determining the Minimum Bactericidal Concentration (MBC120). […] This value, the MBC120, was acquired by growing S. aureus to an OD600=0.075 in TSB. At this value the concentration was determined to be 10^8 CFUs/mL. In order to achieve a final bacterial concentration of 10^4, four ten-fold dilutions were performed in TSB. […] For proli/NO, 1 mL of 2×10^4 CFUs/mL bacterial solution was added to various masses (0.5-16 mg). […] The plates were incubated overnight at 37° C. and enumerated. The graphs present the total CFUs present in each tube as determined by counting each colony and multiplying that number by 100 to account for both 10-fold dilutions. Determination of Fractional Bactericidal Concentration (FBC120). […] S. aureus was cultured to a concentration of 10^8 CFUs/mL and the concentration was adjusted to 2×10^4 CFUs/mL in TSB. […] After incubating the plates overnight at 37° C., viability was determined by counting the number of distinct colonies on each plate and multiplying this number by 100 to account for the two 10-fold dilutions. The numerical value of the FBC120 was obtained according to the equation:
# [6] = system: P. aeruginosa cells; assay: Confocal microscopy with DAF-2 DA NO probe and propidium iodide; type: cell-based
# From the text: Once inside the bacterial cell membrane, the DAF-2 DA probe is hydrolyzed to DAF-2, which is membrane-impermeable. […] Cells loaded with DAF-2 were imaged in the presence of propidium iodide (PI), which is a nucleic acid viability dye that only enters cells with compromised membranes, and fluoresces red once inside the cells. Thus, red fluorescence is indicative of cell death. […] After a peak intracellular intensity of DAF-2 fluorescence was reached, the red fluorescence of the PI began to increase, indicating entry of the PI into the cells due to membrane disruption and cell death.
# [7] = type: physicochemical
# Method: We synthesized proli/NO by subjecting a 2:1 molar ratio of sodium methoxide in methanol and proline to 5 atm of NO for 3 days. To the resulting solution excess diethyl ether was added. After vacuum removal of solvent a white solid was obtained. Its NO release was monitored using chemiluminescence; we determined that proli/NO releases a total of 1.8 μmol NO/mg in less than 70 s when exposed to PBS at pH 7.4. Release is initiated quickly by protonation of proline's cyclic amine or slowly by thermal degradation. In the MBC120 determination, proli/NO was kept on ice until exposure to bacterial solution to prevent thermal NO release. Proli/NO's MBC120 is 16 mg/mL against S. aureus. […] See Turner, T. D., et al., J Pharm. Pharmacol. 41, 775-80 (1989). […] Synergy is determined based on inhibition beyond what would be expected for each alone. […] More specifically, the MBC was used instead of the MIC, once again because we are interested in reducing a bacterium's chances of becoming resistant to the drug employed by developing conditions that will lead to a quick kill. Additionally, reducing the bacterial burden in wound beds quickly is paramount to prevent infections. […] See Feng Q. L. et al., J. Biomed. Mater. Res. 52, 662-668 (2000).
# Nitric oxide release measurements. Nitric oxide release from both the diazeniumdiolate-modified silica nanoparticles and PROLI/NO was measured in deoxygenated phosphate-buffered saline (PBS, 0.01 M; 37° C.) at pH 7.4 using a Sievers NOA 280i chemiluminescence NO analyzer (Boulder, Colo.). Nitric oxide released from the donors was transported to the analyzer by a stream of N2 (70 mL·min^−1) passed through the reaction cell. The instrument was calibrated with air passed through a NO zero filter (0 ppm NO) and a 24.1 ppm NO standard gas (balance N2).
# [8] = system: S. aureus; conditions: TSB
# Method: as §1
# [9] = amount of NO equal to 100 μg·mL^−1 nanoparticles
molecule,measurement,setting,value
O=C(O)[C@@H]1CCCN1 [proline],killing of P. aeruginosa by controls depleted of NO,[1]; over the concentration ranges tested,no killing
same,toxicity to P. aeruginosa,"[1]; up to 20 mg·mL^−1, the highest concentrations tested",no toxicity
same,growth of P. aeruginosa exposed to control solutions,"[2]; TSB, 2 h",proliferated
nitric oxide [NO gas],toxicity to mammalian cells,[3],not toxic
O=C([O-])C1CCCN1[N+]([O-])=N[O-].[Na+].[Na+] (stereo not shown) [proli/NO],toxicity to dermal fibroblasts,[4],non-toxic
same,amount of NO required per mL for a 3 log reduction in bacterial viability,"[1]; PBS, 1 h",4.5 μmol NO
same,concentration completely bactericidal (3 logs of killing),"[1]; PBS, 1 h",2.5 mg·mL^−1
same,mass required relative to silica nanoparticles for complete killing,"[1]; PBS, by mass",approximately 35 times
same,"toxicity to S. aureus, agent alone",[5]; 8 mg/mL proli/NO alone,non-toxic
same,fraction of MBC120 used in the combination,"[5]; 2/16 mg/mL proli/NO, 21.9/[…] AgSD",0.125
same,P. aeruginosa cell death (PI fluorescence),[6]; 5 mg·mL^−1,rapid cell death
same,intracellular DAF-2 fluorescence prior to cell death,[6]; 5 mg·mL^−1,still not observed
same,P. aeruginosa cell death (PI fluorescence),[6]; [9],cell death was not observed
same,intracellular DAF-2 fluorescence,[6]; [9],no intracellular DAF-2 fluorescence was observed
same,time in which the total NO is released,[7]; PBS at pH 7.4 (Example 1),less than 70 s
same,total NO released,[7]; PBS at pH 7.4 (Example 1),1.8 μmol NO/mg
same,total amount of NO released (t[NO]),"[7]; PBS pH 7.4, 37° C. (Example 2)",1.8 μmol NO·mg^−1
same,time required to reach the maximum NO flux (tm),[7]; after immersion in / addition to buffer,approximately 1 min
same,maximum NO flux ([NO]m),"[7]; not told, pH 7.4",> 145000 ppb·mg^−1
same,NO release half life (t1/2),[7]; pH 7.4,< 2 min
same,MBC120 (concentration for three logs of killing within 120 min),[8],16 mg/mL
same,time to complete killing,"[2]; 12 mg·mL^−1, TSB",30 min
same,time of bacterial killing,"[2]; 12 and 20 mg·mL^−1, TSB",< 30 min
same,amount of NO per mL required for complete bacterial killing,[2]; TSB,21.6
"NCCNCCN [diethylenetriamine backbone, diethylenetriamine]",toxicity of backbone alone to P. aeruginosa,[1]; data not shown,considerable toxicity
